Laboratory results published in patent US9555086B2, “Compositions and methods for inducing an immune response” (The Regents of the University of Michigan, priority 2010, dated 2017).
Entries after “also recorded” stand apart in the source; their conditions may differ.

How the values were obtained:
CD8+ and CD8− DC = assay: Cytokine production by splenic DC subsets (Luminex); type: cell-based, mouse
Experimental: Splenic CD8+ and CD8− DC were isolated from DBA/1 mice as above and cultured in 96-well plates over time in the presence or absence of ISL-positive (65-79*0401) or ISL-negative (65-79*0402) peptides (50 μg/ml). At various time points thereafter, supernatants were collected and assayed for cytokine content, using the Luminex platform.
DBA/1 splenic unfractionated CD11c+ DCs (CD11c+), or their purified CD11c+CD8+ DCs (CD8+) or CD11c+CD8− DCs (CD8−) subsets were cultured with the ISL 65-79*0401 or ISL-negative control 65-79*0402 or medium. Supernatants were collected at different time points and assayed for cytokine content using a Luminex platform.
(§1) To determine the rate of NO production, cells were loaded with 20 μM of the fluorescent NO probe 4,5-diaminofluorescein diacetate (DAF-2DA) and the fluorescence level was recorded every 5 minutes over a period of 500 minutes using a Fusion αHT system (PerkinElmer Life Sciences) at an excitation wavelength of 488 nm and emission wavelength of 515 nm. To determine IDO enzymatic activity, the generation of its product, kynurenine was measured (Takikawa et al. 1988. J Biol Chem 263:2041-2048.; herein incorporated by reference in its entirety). Cytokine concentrations were measured in cell culture supernatants using a Luminex platform (Millipore Corporation, Danvers, Mass.). In some experiments, cytokines were determined using ELISA (Quantikine®, R&D Systems, Minneapolis, Minn.) following the manufacture's instruction.

CD11c+DCs = assay: IL-23 and IL-6 production in LPS-stimulated bone marrow-derived CD11c+DCs (ELISA); type: cell-based, mouse; details: LPS-treated DCs (100 ng/ml LPS)
Experimental: DBA/1 bone marrow-derived CD11c+DCs were cultured with or without 100 ng/ml LPS in the presence or absence of ISL-positive or ISL-negative 15mer peptides (50 μg/ml). Supernatants were collected at different time points and assayed for IL-23 and IL-6 content by ELISA.
as §1

CD4+CD25+Foxp3+ Treg = assay: Treg differentiation in DC/CD4+ T cell co-culture; type: cell-based, mouse; details: 50 μg/ml peptide; for Treg differentiation (CD4+CD25+Foxp3+ abundance): DCs co-cultured with naïve CD4+CD25−CD62L+CD44− T cells, 5 days
Experimental: (A) DBA/1 bone marrow-derived CD11c+DCs were cultured overnight with 50 μg/ml SL ligand 65-79*0401 or ISL-negative control 65-79*0402, or medium. Syngeneic splenic CD4+ T cells were then added to the culture, and incubated with anti-CD3 and TGF-β for 5 days. On the left, flow cytometry dot plots showing percentages of CD25+Foxp3+ cells obtained from gated CD4+ T cells in each treatment. Each plot is representative of three experiments. On the right, bar graphs present results as mean percentage±SD of replicate samples. (B) Cultures were performed as in (A), with the exception that CD4+CD25− CD62L+CD44− naïve T cells, instead of CD4+ T cells were added to the CD11c+DCs. (C) DBA/1 bone marrow-derived CD11c+DCs were incubated overnight with 2 μg/ml tetramers (ISL-positive T-DRB1*0401, versus ISL-negative T-DRB1*0301, or T-DRB1*1501). Syngeneic CD4+CD25−CD62L+CD44− naïve T cells, anti-CD3 and TGF-β were then added to the culture and incubated for 5 days and analyzed as above.
DBA/1 bone marrow-derived CD11c+DCs were placed in 24-well plates (BD Biosciences, San Jose, Calif.) at a density of 2.5×10^5 cells per well and cultured overnight with or without 50 μg/ml of peptidic (65-79*0401 or 65-79*0402), or 2 μg/ml of tetrameric (T-DR1*0401, T-DR1*0301, or T-DR1*1501) ligands at 37° C. On the following day, 5.0×10^5 CD4+ T cells or CD4+CD25−CD62L+CD44− naïve T cells, isolated as described above, were added to each well in addition to anti-CD3 antibodies (5 μg/ml) and rhTGFβ (2.5 ng/ml).
After 5 days in culture, cells were harvested and stained for flow cytometric analysis using FITC anti-mouse CD4 (clone […]), PE anti-mouse CD25 (clone PC61) and isotype controls (Biolegend, San Diego, Calif.). […] After permeabilization, cells were stained using an APC-conjugated anti-mouse Foxp3 antibody (clone FLK-16S from e-Bioscience, San Diego, Calif.) and analyzed by FACScalibur flow cytometer using the CELLQuest™ software (Becton Dickinson, Franklin Lakes, N.J.).

Th17 cells = assay: Expansion of pathogen-specific Th17 cells in immunized CII-TCR Tg mice; type: in vivo
[1] = tested on: Human fibroblast M1 cells; details: previously determined; cited from earlier work
trypsin and chymotrypsin = assay: Trypsin/chymotrypsin stability assay; details: after 30 minutes, 37° C., pH 8

## H-KDLLEQKRAAVDTYC-NH2 [65-79*0401]
CD8+ and CD8− DC; CD11c+CD8+ DCs, 50 μg/ml peptide
  IL-6 / cytokine production: no production of any cytokines; also recorded: not in the CD11c+CD8+ subset
CD8+ and CD8− DC; CD11c+CD8− DCs
  time point of IL-6 peak: 24 h
CD8+ and CD8− DC; CD11c+CD8− DCs, 50 μg/ml peptide
  IL-6 production: robust production
CD8+ and CD8− DC; splenic DCs
  production of other cytokines (IL-4, IL-10, IL-12, IL-1β, TGFβ): did not show any increased production
CD11c+DCs
  IL-23 production: augmented
CD4+CD25+Foxp3+ Treg; DCs co-cultured with CD4+ T cells, TGF-β, anti-CD3, 5 days
  Treg expansion (CD4+CD25+Foxp3+ abundance): significantly inhibited
CD4+CD25+Foxp3+ Treg
  Treg differentiation (CD4+CD25+Foxp3+ abundance): significantly inhibited
CD4+CD25+Foxp3+ Treg; listed as 65-79*040
  Treg differentiation (CD4+CD25+Foxp3+ abundance): statistically significant, yet modest
Th17 cells; 100 μg i.p. days 0, 7, 14, 21, day 42
  total antigen non-stimulated Th17 cells in draining lymph nodes: significant increase
Th17 cells; lymph node cells re-stimulated with bacterial antigen PPD
  percentage of Th17 cells after 6 days in culture: 13.1±0.5%
Th17 cells; lymph node cells stimulated with CII
  percentage of Th17 cells after 6 days in culture: 8.4±0.5%
Th17 cells; lymph node cells, without any antigen stimulation
  percentage of Th17 cells after 6 days in culture: 5.4±0.4%
[1]
  optimal concentration for NO production: 50 µM
Trypsin and chymotrypsin
  degradation by trypsin/chymotrypsin (HPLC): degraded completely
